Source: US20100240581A1, “SELECTIVE PROTEASOME INHIBITORS FOR TREATING DIABETES” (The Trustees of Columbia University in the City of New York, priority 2006, published 2010)
pIC50: −log10 of the molar value. Entries after “also recorded” stand apart in the source; their conditions may differ.

Legend:
[1] = tested on: male C57BL/Ks db/db mice; assay: Body composition (Bruker NMR), food intake and liver in db/db mice; assay type: in vivo, mouse; settings: dietary curcumin (3%)
[2] = tested on: TNF-α, Socs-3, Ccl2 (MCP-1 gene) and Ccr2 (MCP-1 receptor gene); assay: Quantitative real-time PCR of hepatic inflammatory genes in ob/ob mice; assay type: in vivo, mouse; settings: dietary curcumin, 10 weeks; male ob/ob mice
Description: (§1) These included TNF-α, Socs-3, Ccl2 (MCP-1 gene) and Ccr2 (MCP-1 receptor gene).

[3] = tested on: NFkB p65; assay: p65 activity assay (TransAM NFkB p65 Kit) in liver nuclear extracts of ob/ob mice; assay type: in vivo, mouse; settings: dietary curcumin, 10 weeks; liver nuclear extract of ob/ob mice
Description: as §1

[4] = tested on: male C57BL/6J DIO mice; assay: Glucose tolerance test in DIO mice; assay type: in vivo, mouse; settings: dietary curcumin
Description: (§2) This translated into a daily consumption by the mice of roughly 1.0 to 1.5 g/kg/day.
(§3) This effect was noted to last for at least 48 hours post-injection. Mice receiving vehicle in the celastrol and epoxomicin experiments were food entrained to the treatment group to avoid any acute effects on glucose levels from differences in food intake.

[5] = Serum adiponectin in ob/ob mice; assay type: in vivo, mouse; settings: curcumin-treated ob/ob mice (not shown)
Description: (§4) Given that the adipose tissue of obese subjects is chronically inflamed and secretes diabetogenic adipokines, we investigated the possibility that proteasome inhibition improves diabetes by decreasing adipose inflammation in obese diabetic mice.

[6] = tested on: pancreatic islets of C57BL/Ks db/db mice; assay: Immunohistology of pancreatic islets in db/db mice; assay type: in vivo, mouse; settings: curcumin-treated C57BL/Ks db/db mice
Description: (§5) As FIGS. 19 and 20 A-C reveal, untreated ob/ob mice develop pancreatic β-cell hyperplasia and hyperinsulinemia, a phenomenon that ultimately allows them to recoup normoglycemia. The pancreatic islets in untreated C57BL/Ks db/db mice however, degenerate (FIG. 20 D-F).

[7] = tested on: macrophages in adipose tissue of ob/ob mice; assay: Adipose macrophage immunohistochemistry (F480 antibody) in ob/ob mice; assay type: in vivo, mouse; settings: dietary curcumin; male C57BL/6J ob/ob mice
[8] = tested on: male C57BL/6J ob/ob mice; assay: Insulin tolerance test in ob/ob mice; assay type: in vivo, mouse; settings: dietary curcumin (3%)
Description: as §2, §3

[9] = tested on: male C57BL/6J ob/ob mice; assay: Body composition (Bruker NMR), food intake and liver in ob/ob mice; assay type: in vivo, mouse
[10] = tested on: DIO C57BL/6J, C57BL/6J ob/ob and C57BL/Ks db/db mice; assay: Random fed glucose and HbA1c in the three mouse models of diabetes; assay type: in vivo
[11] = tested on: male C57BL/6J DIO mice; assay: Body composition, food intake and liver in DIO mice; assay type: in vivo, mouse
[12] = tested on: adiponectin (Acdc), F480 (Emr1); assay: Quantitative real-time PCR of white adipose tissue of ob/ob mice; assay type: in vivo, mouse; settings: dietary curcumin, 10 weeks; male ob/ob mice
Description: as §4

[13] = tested on: diabetic streptozotocin-treated rat; settings: oral curcumin therapy; preclinical studies, mostly streptozotocin-treated rat; cited from earlier work
[14] = tested on: male C57BL/6J ob/ob mice; assay: Blood glucose in ob/ob mice on dietary curcumin; assay type: in vivo, mouse; settings: dietary curcumin (3%), p<0.05
[15] = tested on: male C57BL/Ks db/db mice; assay: Blood glucose in db/db mice (dietary curcumin or single i.p. injection); assay type: in vivo, mouse; settings: for blood glucose after a single intraperitoneal injection: epoxomicin 0.1 mg/kg or celastrol 3 mg/kg i.p., male db/db mice, noted approximately 10 hours after injection; for duration of blood glucose lowering after injection: single i.p. injection
Description: as §2
Male C57BU6J mice gradually develop obesity and moderate diabetes when placed on high-fat diets, a process quite analogous to that in humans. […] However, the loss of leptin effect on the C57BL/Ks background is not compensated for by β-cell hyperplasia and hyperinsulinemia. At a very young age these mice become severely hyperglycemic, hyperphagic, and polydipsic. As they mature, they start to lose weight, develop nephropathy, and ultimately die around age 40 weeks from diabetic complications.
as §3

[16] = Serum insulin in db/db mice; assay type: in vivo, mouse; settings: for serum insulin: single i.p. dose, celastrol 3 mg/kg or epoxomicin 0.1 mg/kg, 24 hours post injection, male C57BL/Ks db/db mice
Description: as §5

[17] = tested on: male C57BL/Ks db/db mice; assay: Insulin tolerance test in db/db mice; assay type: in vivo, mouse; settings: celastrol i.p., 24 hours after a single injection
Description: as §3

[18] = tested on: adiponectin (Acdc), Ccl2 (MCP-1); assay: Gene expression in white adipose tissue of db/db mice after celastrol; assay type: in vivo, mouse; settings: celastrol i.p. once daily for 3 days; male db/db mice
[19] = tested on: human prostrate cancer growth in nude mice; settings: tumor-bearing nude mice; 1-3 mg/kg/d (i.p.); cited from earlier work
[20] = target: T1, human prostate cancer cellular 26S proteasome (Homo sapiens, UniProt P28074); settings: reported (ref. 83); cited from earlier work
T1 construct: human prostate cancer cellular 26S proteasome

[21] = tested on: rat β-cell line INS-1; assay: INS-1 viable cell number (CellTiter-Blue Cell Viability Assay); assay type: cell-based; settings: INS-1 cells, 24 hours
Description: To follow-up on the potential ability of proteasome inhibition to improve β-cell function, we performed experiments using the rat β-cell line Ins-1.

[22] = target: chymotrypsin-like activity of a purified 20S proteasome (Homo sapiens, UniProt P28074); settings: reported (ref. 83); cited from earlier work
[23] = tested on: Glucotoxic HIT-T15 β-cells; settings: cited from earlier work
[24] = daily doses about 0.5 to about 3.0 mg/kg/d (i.p.); cited from earlier work
[25] = curcumin-fed ob/ob mice vs controls (data not shown)
[26] = dietary curcumin (3%), ob/ob mice

COc1cc(/C=C/C(=O)CC(=O)/C=C/c2ccc(O)c(OC)c2)ccc1O [curcumin]
body weight [1]: weighed more; also recorded: significantly increased | lean muscle mass (NMR) [1]: significantly more lean mass; also recorded: significantly increased lean muscle mass | hepatic expression of pro-inflammatory genes (TNF-α, Socs-3, Ccl2, Ccr2) [2]: significantly downregulated; also recorded: significantly lowers hepatic expression of pro-inflammatory genes | hepatic NF-κB activity [3]: significantly less NFkB activity; also recorded: significantly decreases hepatic NF-κB activity | AUC of glucose tolerance test [4]: improved glucose tolerance; also recorded: significantly lowers AUC of glucose | serum adiponectin levels [5]: significantly higher | proliferating β-cells (nuclear Ks67 immunoreactivity) [6]: contain some proliferating β-cells | pancreatic islet morphology (hyperplasia) ([6]; age 20 weeks): islets actually become hyperplastic; also recorded: hyperplasia of the pancreatic islets | adipose macrophage infiltration (F480 staining) [7]: dramatic reduction in the number of macrophages; also recorded: significant reduction of adipose macrophage infiltration | AUC of insulin tolerance test [8]: decreased area under the curve (AUC); also recorded: significantly lowers AUC of insulin tolerance test | degree of liver steatosis [9, 25]: significantly lower | liver weight [9, 25]: significantly lower | adipose mass / body fat [9, 26]: significantly less body fat; also recorded: significantly decreases | body weight [9, 26]: weighed slightly but significantly less; also recorded: significantly decreases body weight | lean body mass (NMR) [9, 26]: significantly more lean mass; also recorded: significantly increases lean body mass | HbA1c levels ([10]; 3% dietary curcumin, all mouse models of diabetes tested): significant decreases; also recorded: decreases HbA1c percentage | random fed glucose ([10]; 3% dietary curcumin, all three diabetic mice categories, as early as 2-3 weeks): significant decreases | HbA1c percentage in non-diabetic mice ([10]; dietary curcumin (3%), non-diabetic mice): not affected | body weight ([11]; 3% curcumin in food, DIO mice): weighed slightly but significantly less | liver weight ([11]; curcumin treatment, DIO mice): significantly lower; also recorded: significantly decreased | degree of liver steatosis ([11]; curcumin-fed DIO mice vs controls (data not shown)): significantly lower | body fat percentage / body fat ([11]; one month of curcumin treatment, DIO mice): significantly less body fat; also recorded: significantly decreased body fat percentage | F480 (Emr1) expression in white adipose tissue [12]: significantly decreased macrophage-specific Emr1 (F480) expression; also recorded: decreases F480 (Emr1) expression | adiponectin (Acdc) expression in white adipose tissue [12]: dramatically increased; also recorded: significantly increases expression of adiponectin (Acdc) | diabetes-related hyperglycemia or end-organ damage [13]: prevents, delays, or ameliorates diabetes-related hyperglycemia or end-organ damage | effect on hyperglycemia (blood glucose) [14]: significant protective effect against hyperglycemia | effect on hyperglycemia (blood glucose) ([15]; dietary curcumin (3%), male C57BL/Ks db/db mice, p<0.05): significant protection against hyperglycemia | serum insulin levels ([16]; dietary curcumin, db/db mice): exhibit hyperinsulinemia; also recorded: significantly increased serum insulin levels

celastrol
AUC of ITT [17]: improved insulin tolerance; also recorded: significantly lower AUC of ITT | Ccl2 (MCP-1) expression in white adipose tissue [18]: significantly decreased adipose expression of Ccl-2; also recorded: decreasing expression of Ccl2 (MCP-1) | adiponectin (Acdc) expression in white adipose tissue [18]: significantly increased expression of adiponectin; also recorded: significantly increases expression of adiponectin (Acdc) | tumor growth [19]: inhibition of tumor growth | concentration inhibiting human prostate cancer cellular 26S proteasome [20]: 1-5 μM/L | cell viability at highest concentrations [21]: proved cytotoxic; also recorded: negative effects on cell viability | pIC50 [22]: 5.60 | blood glucose after a single intraperitoneal injection [15]: correction of hyperglycemia; also recorded: significantly lowers blood glucose | duration of blood glucose lowering after injection ([15]; male C57BL/Ks db/db mice): ~2 days | serum insulin [16]: significant increases in serum insulin; also recorded: significantly increase serum insulin

CC(=O)N[C@@H](CSC(=O)[C@]1([C@@H](O)C(C)C)NC(=O)[C@H](C)[C@@H]1O)C(=O)O [lactacystin]
MafA protein [23]: caused an accumulation of MafA protein

CC[C@H](C)[C@H](NC(=O)[C@H]([C@@H](C)CC)N(C)C(C)=O)C(=O)N[C@H](C(=O)N[C@@H](CC(C)C)C(=O)[C@@]1(C)CO1)[C@@H](C)O [epoxomicin]
antiinflammatory activity [24]: exhibits antiinflammatory activity | blood glucose after a single intraperitoneal injection [15]: correction of hyperglycemia; also recorded: significantly lowers blood glucose | duration of blood glucose lowering after injection ([15]; male C57BL/Ks db/db mice): ~2 days | serum insulin [16]: significant increases in serum insulin; also recorded: significantly increase serum insulin
